Results published in ChEMBL document CHEMBL1201862, “PubChem BioAssay data set” (2004).
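Interpolation was linear, between the two tested concentrations surrounding the appropriate level; five concentrations were tested over 48 hours in 96-well plates. At the GI50, growth is halved.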 Calls of active or inactive are those of the source. Rule as the data show it: active = GI50 up to about 1.1 µM and inactive = higher.

Legend:
Test in all cases: NCI anticancer screen, dose series, 48 h
EKVX = test system: EKVX
UACC-62 = test system: UACC-62
ACHN = test system: ACHN
SF-539 = test system: SF-539
A498 = test system: A498
A549 = test system: A549
LOX IMVI = test system: LOX IMVI
NCI-H460 = test system: NCI-H460
SK-MEL-2 = test system: SK-MEL-2
HCC 2998 = test system: HCC 2998
RPMI-8226 = test system: RPMI-8226
HOP-92 = test system: HOP-92
COLO 205 = test system: COLO 205
OVCAR-3 = test system: OVCAR-3
SK-OV-3 = test system: SK-OV-3
NCI-H522 = test system: NCI-H522
SNB-19 = test system: SNB-19
HOP-62 = test system: HOP-62
UACC-257 = test system: UACC-257
Malme-3M = test system: Malme-3M
XF498 = test system: XF498
SN12C = test system: SN12C
KM-20L2 = test system: KM-20L2
NCI-H226 = test system: NCI-H226
CCRF-CEM = test system: CCRF-CEM
DLD-1 = test system: DLD-1
IGROV-1 = test system: IGROV-1
HL-60 = test system: HL-60
RXF 631 = test system: RXF 631
SK-MEL-5 = test system: SK-MEL-5
KM12 = test system: KM12
UO-31 = test system: UO-31
HCT-116 = test system: HCT-116
NCI-H23 = test system: NCI-H23
TK-10 = test system: TK-10
MOLT-4 = test system: MOLT-4
DMS-114 = test system: DMS-114
SR = test system: SR
K562 = test system: K562
M14 = test system: M14
OVCAR-4 = test system: OVCAR-4
U-251 = test system: U-251
RXF 393 = test system: RXF 393
SW-620 = test system: SW-620
SF-295 = test system: SF-295
OVCAR-5 = test system: OVCAR-5
HOP-18 = test system: HOP-18
SK-MEL-28 = test system: SK-MEL-28
786-0 = test system: 786-0
OVCAR-8 = test system: OVCAR-8
HCT-15 = test system: HCT-15
DMS-273 = test system: DMS-273
HT-29 = test system: HT-29
SNB-75 = test system: SNB-75
CAKI-1 = test system: CAKI-1
LXFL 529 = test system: LXFL 529
SF-268 = test system: SF-268
M19-MEL = test system: M19-MEL
SNB-78 = test system: SNB-78

C=CCCCC12CCCc3cccc(c31)NC2=O (stereo unspecified)
GI50 (EKVX): 19.1 µM (inactive) | GI50 (UACC-62): 16.8 µM (inactive) | GI50 (ACHN): 28.1 µM (inactive) | GI50 (SF-539): 19.6 µM (inactive) | GI50 (A498): 19.6 µM (inactive) | GI50 (A549): 20.2 µM (inactive) | GI50 (LOX IMVI): 21.6 µM (inactive) | GI50 (NCI-H460): 16.8 µM (inactive) | GI50 (SK-MEL-2): 23.2 µM (inactive) | GI50 (HCC 2998): 16.4 µM (inactive) | GI50 (RPMI-8226): 19.7 µM (inactive) | GI50 (HOP-92): 13.8 µM (inactive) | GI50 (COLO 205): 20.2 µM (inactive) | GI50 (OVCAR-3): 18 µM (inactive) | GI50 (SK-OV-3): 19.7 µM (inactive) | GI50 (NCI-H522): 16.9 µM (inactive) | GI50 (SNB-19): 23.4 µM (inactive) | GI50 (HOP-62): 34 µM (inactive) | GI50 (UACC-257): 22.1 µM (inactive) | GI50 (Malme-3M): 15.6 µM (inactive) | GI50 (XF498): 20.6 µM (inactive) | GI50 (SN12C): 32.4 µM (inactive) | GI50 (KM-20L2): 21.2 µM (inactive) | GI50 (NCI-H226): 20.6 µM (inactive) | GI50 (CCRF-CEM): 16.9 µM (inactive) | GI50 (DLD-1): 19.6 µM (inactive) | GI50 (IGROV-1): 17.1 µM (inactive) | GI50 (HL-60): 15.5 µM (inactive) | GI50 (RXF 631): 20.6 µM (inactive) | GI50 (SK-MEL-5): 16.3 µM (inactive) | GI50 (KM12): 17.4 µM (inactive) | GI50 (UO-31): 30.4 µM (inactive) | GI50 (HCT-116): 13.6 µM (inactive) | GI50 (NCI-H23): 18.1 µM (inactive) | GI50 (TK-10): 19.6 µM (inactive) | GI50 (MOLT-4): 18.8 µM (inactive) | GI50 (DMS-114): 17.3 µM (inactive) | GI50 (SR): 20.8 µM (inactive) | GI50 (K562): 22 µM (inactive) | GI50 (M14): 14.4 µM (inactive) | GI50 (OVCAR-4): 18.9 µM (inactive) | GI50 (U-251): 22 µM (inactive) | GI50 (RXF 393): 17.6 µM (inactive) | GI50 (SW-620): 20 µM (inactive) | GI50 (SF-295): 76.2 µM (inactive) | GI50 (OVCAR-5): 19.3 µM (inactive)

OC1OCC(COc2cc(Cl)c(Cl)cc2Cl)OC1O (stereo unspecified)
GI50 (EKVX): 34.3 µM (inactive) | GI50 (HOP-18): 25.6 µM (inactive) | GI50 (UACC-62): 33 µM (inactive) | GI50 (SK-MEL-28): 65.3 µM (inactive) | GI50 (ACHN): 25.3 µM (inactive) | GI50 (SF-539): 39.4 µM (inactive) | GI50 (786-0): 77.1 µM (inactive) | GI50 (A498): 44.5 µM (inactive) | GI50 (A549): 55 µM (inactive) | GI50 (NCI-H460): 44.5 µM (inactive) | GI50 (HCC 2998): 30.4 µM (inactive) | GI50 (OVCAR-8): 36.8 µM (inactive) | GI50 (RPMI-8226): 26.7 µM (inactive) | GI50 (HOP-92): 56.1 µM (inactive) | GI50 (HCT-15): 19.8 µM | GI50 (COLO 205): 52.1 µM (inactive) | GI50 (OVCAR-3): 25.5 µM (inactive) | GI50 (SK-OV-3): 88.1 µM (inactive) | GI50 (NCI-H522): 23.6 µM (inactive) | GI50 (SNB-19): 33 µM (inactive) | GI50 (HOP-62): 76.7 µM (inactive) | GI50 (DMS-273): 36.4 µM (inactive) | GI50 (UACC-257): 35.9 µM (inactive) | GI50 (Malme-3M): 61.2 µM (inactive) | GI50 (SN12C): 38.2 µM (inactive) | GI50 (KM-20L2): > 100 µM (inactive) | GI50 (NCI-H226): 41.5 µM (inactive) | GI50 (CCRF-CEM): 32 µM (inactive) | GI50 (DLD-1): 44.2 µM (inactive) | GI50 (IGROV-1): 80.9 µM (inactive) | GI50 (HT-29): 65.8 µM (inactive) | GI50 (SNB-75): 26.2 µM (inactive) | GI50 (HL-60): 26.2 µM (inactive) | GI50 (RXF 631): 32.7 µM (inactive) | GI50 (SK-MEL-5): 39.5 µM (inactive) | GI50 (KM12): 35.6 µM (inactive) | GI50 (UO-31): 41.9 µM (inactive) | GI50 (HCT-116): 18.9 µM (inactive) | GI50 (CAKI-1): 33.1 µM (inactive) | GI50 (NCI-H23): 59.2 µM (inactive) | GI50 (TK-10): > 100 µM (inactive) | GI50 (MOLT-4): 32.2 µM (inactive) | GI50 (LXFL 529): 46.8 µM (inactive) | GI50 (DMS-114): 28.4 µM (inactive) | GI50 (SF-268): 68.2 µM (inactive) | GI50 (M19-MEL): 66.1 µM (inactive) | GI50 (K562): 33.6 µM (inactive) | GI50 (M14): 30.1 µM (inactive) | GI50 (OVCAR-4): 31.8 µM (inactive) | GI50 (U-251): 36.6 µM (inactive) | GI50 (SW-620): 19.1 µM (inactive) | GI50 (SF-295): 45.8 µM (inactive) | GI50 (OVCAR-5): > 100 µM (inactive) | GI50 (SNB-78): 22.7 µM (inactive)

FC(F)(F)c1ccc(C2SCc3nc4ccccc4n32)cc1 (stereo unspecified)
GI50 (EKVX): 29.7 µM (inactive) | GI50 (HOP-18): > 100 µM (inactive) | GI50 (UACC-62): 26.4 µM (inactive) | GI50 (SK-MEL-28): > 100 µM (inactive) | GI50 (ACHN): 39.2 µM (inactive) | GI50 (SF-539): > 100 µM (inactive) | GI50 (786-0): > 100 µM (inactive) | GI50 (A498): 81.8 µM (inactive) | GI50 (A549): 41.8 µM (inactive) | GI50 (SK-MEL-2): > 100 µM (inactive) | GI50 (HCC 2998): > 100 µM (inactive) | GI50 (OVCAR-8): > 100 µM (inactive) | GI50 (RPMI-8226): 12.4 µM (inactive) | GI50 (HOP-92): 1.11 µM (active) | GI50 (COLO 205): > 100 µM (inactive) | GI50 (OVCAR-3): > 10 µM (inactive) | GI50 (SK-OV-3): 18.2 µM (inactive) | GI50 (NCI-H522): > 10 µM (inactive) | GI50 (SNB-19): > 100 µM (inactive) | GI50 (DMS-273): 33.8 µM (inactive) | GI50 (UACC-257): 6.56 µM (inactive) | GI50 (Malme-3M): > 100 µM (inactive) | GI50 (SN12C): > 100 µM (inactive) | GI50 (NCI-H226): > 100 µM (inactive) | GI50 (CCRF-CEM): 31.4 µM (inactive) | GI50 (DLD-1): 7.24 µM (inactive) | GI50 (IGROV-1): 14.2 µM (inactive) | GI50 (HT-29): > 100 µM (inactive) | GI50 (SNB-75): 60 µM (inactive) | GI50 (HL-60): 3.13 µM (inactive) | GI50 (RXF 631): 2.96 µM (inactive) | GI50 (SK-MEL-5): 11.5 µM (inactive) | GI50 (KM12): 50 µM (inactive) | GI50 (UO-31): > 100 µM (inactive) | GI50 (HCT-116): 27.9 µM (inactive) | GI50 (CAKI-1): > 10 µM (inactive) | GI50 (NCI-H23): 5.89 µM (inactive) | GI50 (TK-10): > 100 µM (inactive) | GI50 (MOLT-4): 12.1 µM (inactive) | GI50 (LXFL 529): 23.4 µM (inactive) | GI50 (DMS-114): 7.21 µM (inactive) | GI50 (SR): 16.2 µM (inactive) | GI50 (SF-268): 95.3 µM (inactive) | GI50 (M19-MEL): 66.8 µM (inactive) | GI50 (K562): 3.75 µM (inactive) | GI50 (U-251): > 100 µM (inactive) | GI50 (RXF 393): 97.5 µM (inactive) | GI50 (SW-620): > 100 µM (inactive) | GI50 (SF-295): > 100 µM (inactive) | GI50 (OVCAR-5): 15.5 µM (inactive) | GI50 (SNB-78): > 100 µM (inactive)
